From patent US9173892B2, “Acadesine derivatives, products and compositions including same, therapeutic uses thereof, and methods for synthesizing same” (Universite Nice Sophia Antipolis, priority 2011, dated 2015)
Where a name gives a salt, the structure may show the parent alone.

Assays:
Type in all cases: cell-based, human
mTOR pathway [1] = experiment: western blot of 4E-BP1 phosphorylation (mTOR pathway), ImaR cells; settings: 24 hours, imatinib 3 μM, AICAR 1 mM, 82, 112 at 2.5 μM, 15, 23, 191 at 10 μM
Method: (§1) The cells are lyzed and 30 μg of proteins are separated by SDS-PAGE (13% polyacrylamide gel) and analyzed by western blot with an antibody specific to the 4E-BP1 protein. The delayed gel migration observed reflects the level of phosphorylation of 4E-BP1.

ImaR cells [2] = experiment: flow cytometry analysis of the cell cycle, ImaR cells; settings: for proportion of cells in the G2/M phase: 24 hours, 82, 86, 112 at 2.5 μM, 15, 23, 191, 49 at 10 μM; for cells in phase G0/G1 / cells in the subG1 phase: 24 hours, imatinib 3 μM, 112 at 2.5 μM, 15, 23, 49 at 10 μM
Method: (§2) The x-axis of the graph of FIG. 9 corresponds to the quantity of DNA marked with propidium iodide while the y-axis corresponds to the number of cells. […] The nucleii are marked with propidium iodide, then the proportion of cells in the different phases of the cell cycle (subG1, G0/G1, S, G2/M) is determined.

K562 cells [3] = experiment: flow cytometry analysis of the cell cycle, K562 cells; settings: for proportion of cells in the G2/M phase: 24 hours, 82, 86, 112 at 2.5 μM, 15, 23, 191, 49 at 10 μM; for cells in phase G0/G1 / cells in the subG1 phase: 24 hours, imatinib 3 μM, 112 at 2.5 μM, 15, 23, 49 at 10 μM
Method: as §2, with “nuclei” for “nucleii”

cathepsin-B [4] = experiment: cathepsin-B activity (z-RR-AMC) in ImaR cells; settings: 24 hours, AICAR 1 mM, 82, 112 at 2.5 μM, 15, 23, 191 at 10 μM
Method: (§3) The cells are lyzed and 5 μg of proteins are placed in the presence of z-RR-AMC in a 96-well plate. The fluorescence emission at 460 nm resulting from the release of AMC is then recorded.

ImaR cells [5] = experiment: cell viability (XTT) of imatinib-resistant ImaR cells; settings: for efficacy in dose-response experiment (number of viable cells): 5, 10, 25 and 50 μM, compounds effective at concentrations as low as 5 μM; for viability at 500 µM / IC50: Homo sapiens, XTT; for viability at 500 µM: 24 hours, read-out: percentage of viable cells; for IC50: dose-response 5, 10, 25 and 50 μM, Example 1 (Table 1 codes)
Method: (§4) The K562 leukemic cell line is obtained from the pleural effusion of a patient with CML. This line is a good model for studying this disease. […] The K562 and ImaR cells are cultivated at 37° C. under 5% CO2 in an RPMI 1640 medium containing 5% fetal bovine serum and supplemented with sodium pyruvate and antibiotics (penicillin-streptomycin).
(§5) FIGS. 1 to 4 reflect the study of the cell viability.
(§6) After the addition of XTT reagent, the absorbance is measured at 490 nm.
as §6

K562 cells [6] = experiment: cell viability (XTT) of imatinib-sensitive K562 cells; settings: for viability at 500 µM: 24 hours, read-out: percentage of viable cells; for viability at 500 µM / IC50: XTT; for IC50: dose-response 5, 10, 25 and 50 μM, Example 1 (Table 1 codes); for efficacy in dose-response experiment (number of viable cells): 5, 10, 25 and 50 μM, compounds effective at concentrations as low as 5 μM
Method: as §4, §5, §6, §6, §6
After adding XTT reagent, the absorbance is measured at 490 nm.

cathepsin-B [7] = experiment: cathepsin-B activity (z-RR-AMC) in K562 cells; settings: 24 hours, AICAR 1 mM, 82, 112 at 2.5 μM, 15, 23, 191 at 10 μM
Method: as §3

mTOR pathway [8] = experiment: western blot of 4E-BP1 phosphorylation (mTOR pathway), K562 cells; settings: 24 hours, imatinib 3 μM, AICAR 1 mM, 82, 112 at 2.5 μM, 15, 23, 191 at 10 μM
Method: as §1

ImaR cells [9] = experiment: western blot of apoptosis and autophagy markers, ImaR cells; settings: 24 hours; for expression of p62/SQSTM1: AICAR 1 mM, 82, 86, 112 at 2.5 μM, 15, 23, 191 at 10 μM; for LC3 cleavage (LC3-I into LC3-II): AICAR 1 mM, 82, 86 at 2.5 μM, 15, 23, 191, 49 at 10 μM
Method: (§7) The cells are lyzed and 35 μg of proteins are separated by SDS-PAGE (12 or 14% polyacrylamide gel) and analyzed by western blot with antibodies specific to each of the markers.

K562 cells [10] = experiment: western blot of apoptosis and autophagy markers, K562 cells; settings: for expression of p62/SQSTM1: 82, 86, 112 at 2.5 μM, 15, 23, 191 at 10 μM; for LC3 cleavage (LC3-I into LC3-II): 82, 86 at 2.5 μM, 15, 23, 191, 49 at 10 μM; for type of programmed cell death induced: conclusion of Example 1, K562 and ImaR cells
Method: as §7

caspase-3 [11] = experiment: caspase-3 activity (Ac-DEVD-AMC) in ImaR cells; settings: 24 hours, imatinib 3 μM, AICAR 1 mM, 112 at 2.5 μM, 15, 23, 49 at 10 μM
Method: (§8) The cells are lyzed and 10 μg of proteins are placed in the presence of Ac-DEVD-AMC in a 96-well plate. The fluorescence emission at 460 nm resulting from the release of AMC is then recorded.

caspase-9 [12] = experiment: caspase-9 activity (Ac-LEHD-AMC) in K562 cells
Method: (§9) The cells are lyzed and the caspase-9 activities are measured using 10 μg of proteins and Ac-LEHD-AMC. The fluorescence emission at 460 nm resulting from the release of AMC is then recorded.

caspase-9 [13] = experiment: caspase-9 activity (Ac-LEHD-AMC) in ImaR cells; settings: 24 hours, imatinib 3 μM, 112 2.5 μM, 15 and 23 10 μM
Method: as §9

caspase-3 [14] = experiment: caspase-3 activity (Ac-DEVD-AMC) in K562 cells; settings: 24 hours, imatinib 3 μM, AICAR 1 mM, 112 at 2.5 μM, 15, 23, 49 at 10 μM
Method: as §8

[15] = Homo sapiens, K562, 24 or 48 hours
[16] = AICAR 1 mM, compounds 2.5 or 10 μM
[17] = K562, 24 hours, AICAR 1 mM, compounds 2.5 or 10 μM

CCOC(=O)c1nnn([C@@H]2O[C@H](COC(C)=O)[C@@H](OC(C)=O)[C@H]2OC(C)=O)c1-c1cccs1 [Compound 82, 1′-(4-ethoxycarbonyl-5-(2-thienyl)-[1,2,3]-triazol-1-yl)-2′,3′,5′-tri-O-acetyl-β-D-ribofuranose]
phosphorylation of 4E-BP1 (mTOR pathway [1]): total reduction | proportion of cells in the G2/M phase (ImaR cells [2]): increase | proportion of cells in the G2/M phase (K562 cells [3]): increase | increase in the cathepsin-B activity (factor) (cathepsin-B [4]): around 2 | efficacy in dose-response experiment (number of viable cells) (ImaR cells [5]): particularly effective | viability at 500 µM (ImaR cells [5]; 0.5 mM): < 10% | IC50 (ImaR cells [5]; 24 or 48 hours): ~2.5 µM | viability at 500 µM (K562 cells [6]; Homo sapiens, K562, 0.5 mM): < 10% | IC50 (K562 cells [6]; [15]): ~2.5 µM | efficacy in dose-response experiment (number of viable cells) (K562 cells [6]; K562): particularly effective | increase in the cathepsin-B activity (factor) (cathepsin-B [7]): around 2 | phosphorylation of 4E-BP1 (mTOR pathway [8]): total reduction | expression of p62/SQSTM1 (ImaR cells [9]): increase in the expression | LC3 cleavage (LC3-I into LC3-II) (ImaR cells [9]): cleaved | expression of p62/SQSTM1 (K562 cells [10]; K562, 24 hours, AICAR 1 mM): increase in the expression | LC3 cleavage (LC3-I into LC3-II) (K562 cells [10]; K562, 24 hours, AICAR 1 mM): cleaved | type of programmed cell death induced (K562 cells [10]): autophagy alone

CCOC(=O)C#Cc1c(C(=O)OCC)nnn1[C@@H]1O[C@H](COC(C)=O)[C@@H](OC(C)=O)[C@H]1OC(C)=O [Compound 49, 1′-(4-ethoxycarbonyl-5-ethyl propiolate-[1,2,3]-triazol-1-yl)-2′,3′,5′-tri-O-acetyl-β-D-ribofuranose]
proportion of cells in the G2/M phase (ImaR cells [2]): increase | cells in phase G0/G1 (ImaR cells [2]): reduction | cells in the subG1 phase (ImaR cells [2]): very pronounced accumulation | proportion of cells in the G2/M phase (K562 cells [3]): increase | cells in phase G0/G1 (K562 cells [3]): reduction | cells in the subG1 phase (K562 cells [3]): very pronounced accumulation | increase in the caspase-3 activity (factor with respect to the control) (caspase-3 [11]): increase | efficacy in dose-response experiment (number of viable cells) (ImaR cells [5]): particularly effective | viability at 500 µM (ImaR cells [5]; 0.5 mM): < 10% | IC50 (ImaR cells [5]; 24 or 48 hours): ~10 µM | pathway relaying the induced apoptosis (caspase-9 [12]; conclusion of Example 1, K562 and ImaR cells): intrinsic pathway | viability at 500 µM (K562 cells [6]; Homo sapiens, K562, 0.5 mM): < 10% | IC50 (K562 cells [6]; [15]): ~10 µM | efficacy in dose-response experiment (number of viable cells) (K562 cells [6]; K562): particularly effective | LC3 cleavage (LC3-I into LC3-II) (ImaR cells [9]): cleaved | PARP cleavage (fragment at 85 kDa) (ImaR cells [9]; imatinib 3 μM, 112 at 2.5 μM, 15, 23, 49 at 10 μM): appearance of the characteristic cleavage fragment at 85 kDa | LC3 cleavage (LC3-I into LC3-II) (K562 cells [10]; K562, 24 hours, AICAR 1 mM): cleaved | PARP cleavage (fragment at 85 kDa) (K562 cells [10]; K562, 24 hours, imatinib 3 μM, 112 at 2.5 μM, 15, 23, 49 at 10 μM): appearance of the characteristic cleavage fragment at 85 kDa | type of programmed cell death induced (K562 cells [10]): combination of the two types of mechanisms

Cc1ccc(NC(=O)c2ccc(CN3CCN(C)CC3)cc2)cc1Nc1nccc(-c2cccnc2)n1 [imatinib, imatinib mesylate, reference compound]
cells in phase G0/G1 (ImaR cells [2]): not observed | cells in the subG1 phase (ImaR cells [2]): not observed | cells in phase G0/G1 (K562 cells [3]): increase | cells in the subG1 phase (K562 cells [3]): small fraction of cells is also accumulated | caspase-9 activity (caspase-9 [13]): not the case | cell viability (ImaR cells [5]; imatinib 1 μM, 48 hours): affected only slightly | caspase-9 activity (caspase-9 [12]; K562, 24 hours, imatinib 3 μM, 112 2.5 μM, 15 and 23 10 μM): strong increase | cytotoxicity at 1 µM (K562 cells [6]; Homo sapiens, K562, 48 h, read-out: cell viability loss): > 50% | phosphorylation of 4E-BP1 (mTOR pathway [8]): totally inhibits

NC(=O)c1ncn([C@@H]2O[C@H](CO)[C@@H](O)[C@H]2O)c1N [AICAR, 5-aminoimidazole-4-carboxamide-1-β-D-ribofuranoside, reference compound]
phosphorylation of 4E-BP1 (mTOR pathway [1]): total reduction | increase in the cathepsin-B activity (factor) (cathepsin-B [4]): increase | increase in the caspase-3 activity (factor with respect to the control) (caspase-3 [11]): incapable of inducing this activation | increase in the caspase-3 activity (factor with respect to the control) (caspase-3 [14]): incapable of inducing this activation | reduction in cell viability (ImaR cells [5]; 0.5 mM, 24 or 48 hours, Example 1): cell viability loss | efficacy in dose-response experiment (number of viable cells) (ImaR cells [5]): ineffective | reduction in cell viability (K562 cells [6]; K562, 0.5 mM, 24 or 48 hours, Example 1): cell viability loss | efficacy in dose-response experiment (number of viable cells) (K562 cells [6]; K562): ineffective | increase in the cathepsin-B activity (factor) (cathepsin-B [7]): increase | phosphorylation of 4E-BP1 (mTOR pathway [8]): total reduction | expression of p62/SQSTM1 (ImaR cells [9]): increase in the expression | LC3 cleavage (LC3-I into LC3-II) (ImaR cells [9]): cleaved | AMPK activation (level of phosphorylation) (ImaR cells [9]; [16]): activated | mTOR pathway: phosphorylation of the ribosomal protein S6 (ImaR cells [9]; [16]): massive dephosphorylation | expression of p62/SQSTM1 (K562 cells [10]; K562, 24 hours, AICAR 1 mM): increase in the expression | LC3 cleavage (LC3-I into LC3-II) (K562 cells [10]; K562, 24 hours, AICAR 1 mM): cleaved | AMPK activation (level of phosphorylation) (K562 cells [10]; [17]): activated | mTOR pathway: phosphorylation of the ribosomal protein S6 (K562 cells [10]; [17]): massive dephosphorylation

CCOC(=O)c1nnn(C2OC(COC(C)=O)C(OC(C)=O)C(OC(C)=O)C2OC(C)=O)c1I [Compound 191, 1′-(4-ethoxycarbonyl-5-iodo-[1,2,3]-triazol-1-yl)-2′,3′,4′,6′-tetra-O-acetyl-β-D-glucopyranose]
increase in the cathepsin-B activity (factor) (cathepsin-B [4]): around 2 | efficacy in dose-response experiment (number of viable cells) (ImaR cells [5]): particularly effective | viability at 500 µM (ImaR cells [5]; 0.5 mM): < 10% | IC50 (ImaR cells [5]; 24 or 48 hours): ~10 µM | viability at 500 µM (K562 cells [6]; Homo sapiens, K562, 0.5 mM): < 10% | IC50 (K562 cells [6]; [15]): ~10 µM | efficacy in dose-response experiment (number of viable cells) (K562 cells [6]; K562): particularly effective | increase in the cathepsin-B activity (factor) (cathepsin-B [7]): around 2 | expression of p62/SQSTM1 (ImaR cells [9]): increase in the expression | LC3 cleavage (LC3-I into LC3-II) (ImaR cells [9]): cleaved | expression of p62/SQSTM1 (K562 cells [10]; K562, 24 hours, AICAR 1 mM): increase in the expression | LC3 cleavage (LC3-I into LC3-II) (K562 cells [10]; K562, 24 hours, AICAR 1 mM): cleaved | type of programmed cell death induced (K562 cells [10]): autophagy alone
